Results published in patent US20230302036A1, “COMPOSITIONS FOR TREATMENT OF SPINAL MUSCULAR ATROPHY” (priority 2020, published 2023).
“Also recorded” adds a separate entry of the source. Oligonucleotides are written 5' to 3', each unit as a sugar letter and its base; * is a phosphorothioate linkage, no mark a phosphodiester; rarer units and linkages stand in square brackets, end groups in braces. Plain capitals give the bases only. e = 2'-O-(2-methoxyethyl) (MOE); [5mC] = 5-methylcytosine

How the values were obtained:
[1] = system: H3K9me2 along the SMN2 gene; assay: ChIP-qPCR of H3K9me2 distribution along the SMN2 gene in HEK293T cells; assay type: cell-based, human
Procedure: H3K9me2 (FIG. 2B), total RNAPII (FIG. 2C), P-Ser5 RNAPII (FIG. 2D), and P-Ser2 RNAPII (FIG. 2E) distribution along the SMN2 gene, assessed by ChIP-qPCR in HEK293T cells transfected with the scramble oligo (CTRL) or ASO1 and treated with 10 mM VPA. Four independent immunoprecipitation replicates were conducted per experiment. Data are represented as mean ± S.D. (n = 4, *p < 0.05, two-tailed Student’s t test).
Total distribution of H3K9me2 (FIG. 3C), total RNAPII (FIG. 3D), P-Ser5 RNAPII (FIG. 3E), and P-Ser2 RNAPII (FIG. 3F) along the SMN2 gene is shown. This distribution was assessed by ChIP-qPCR in HEK293T cells transfected with the scramble oligo (CTRL) or ASO2 and treated with 10 mM VPA. Four independent immunoprecipitation replicates were conducted per experiment. Data are represented as mean ± S.D. (n = 4, *p < 0.05, two-tailed Student’s t test).
Approximately 2×10^6 HEK293T cells per sample were treated for 10 min in 1% (v/v) formaldehyde at room temperature to crosslink protein-DNA complexes. Crosslinking was stopped with glycine at a final concentration of 125 mM. Cells were washed twice with cold PBS and swelled on ice for 10 min in 25 mM HEPES pH 8, 1.5 mM MgCl2, 10 mM KCl, 0.1% NP-40, 1 mM DTT and 1× protease inhibitor cocktail set III (Calbiochem). Following Dounce homogenization, the nuclei were collected and resuspended in 1 ml sonication buffer (50 mM HEPES pH 8, 140 mM NaCl, 1 mM EDTA, 0.1% sodium deoxycholate, 0.1% SDS and 1× protease inhibitor cocktail). DNA was sonicated in an ultrasonic bath (Bioruptor Diagenode) to an average length of 200-500 bp. After addition of 1% (v/v) Triton X-100, samples were centrifuged at 15,000 ×g. Supernatants were immunoprecipitated O/N with 40 µl of pre-coated anti-IgG magnetic beads (Dynabeads M-280, Invitrogen) previously incubated with the antibody of interest for 6 hr at 4° C. The antibodies used were: rabbit anti-H3 (2 µg, Abcam ab1791), mouse anti-H3K9me2 (4 µg, Abcam ab1220), rabbit anti H3K9me3 (4 µg, Abcam ab8898), rabbit anti H3K9Ac (2 µg, Abcam ab4441), rabbit anti Rpb1 NTD (2 µg, Cell Signaling, D8L4Y), rabbit Phospho-Rpb1 CTD Ser2 (2 µg, Cell Signaling, E1Z3G), rabbit Phospho-Rpb1 CTD Ser5 (2 µg, Cell Signaling, D9N5I). Control immunoprecipitations were performed with rabbit IgG (1 µg, Abcam ab171870). […] Immunoprecipitated DNA (1.5 µl) and serial dilutions of the 10% input DNA (1:4, 1:20, 1: 100, and 1:500) were analyzed by SYBR-Green real-time qPCR.

[2] = system: SMA mice (Smn-/-; SMN2 2TG/0); assay: Kaplan-Meier survival of severe SMA mice; assay type: in vivo, mouse; conditions: s.c. ASO1 at P0 and P1 and/or one s.c. VPA 10 µg/g
Procedure: Kaplan-Meier survival plot (FIG. 4A) and growth curves (FIG. 4B) of SMA mice, following subcutaneous administration at P0 and P1 of 16.8 µg ASO1 (n=18) or saline (n=14), one subcutaneous dose before P3 of 10 µg per g of body weight VPA (n=12), or both treatments together (n=20). ASO1-treated Smn^+/- heterozygote littermates (n=15) served as controls. Scramble (Ctrl) (n=12, 40 trials), VPA (n=13, 50 trials), ASO1 (n=11, 50 trials), ASO1 + VPA (n=17, 68 trials), and untreated heterozygotes (n=12, 36 trials). Statistical significance was analyzed by two-way repeated measures ANOVA. P < 0.05 was considered statistically significant; data are represented as mean + SD. In the righting-reflex test, the time it took a mouse to right itself […] on a flat surface was measured. In the grip-strength test, the angle at which the pups fell from a tablet with a rough to which they held on by their forelimbs was measured.
FIGS. 7A-H show ASO1 and TSA combined treatment in mice. Kaplan-Meier survival plot (FIG. 7A) and growth curves (FIG. 7B) of SMA mice after subcutaneous administration at P0 and P1 of 16.8 µg ASO1 (n=20) or vehicle (n=12), one subcutaneous dose of 10 µg per g of body weight TSA (n=15) at P2, or both treatments together (n=24), are shown. ASO1-treated heterozygotes (n=18) served as controls. Statistical significance was analyzed by two-way repeated measures ANOVA. P < 0.05 was considered statistically significant; data are represented as mean + SD.
All mouse protocols were in accordance with Cold Spring Harbor Laboratory’s Institutional Animal Care and Use Committee guidelines. The mild Hung mouse model (Smn^-^/-; SMN2^2TG/2TG) was the strain FVB.Cg-Smn1^tm1Hung Tg(SMN2)2^Hung/J, purchased from Jackson Laboratory (stock no. 005058). The severe SMA model (Smn^-/-; SMN2^2TG/0) was generated as previously described (Hua et al., Nature 478, 123-126, 2011).
Oligonucleotide solutions in saline were injected subcutaneously into the upper back at P0 and P1 with a […] and 33-gauge custom removable needle (Hamilton) as described (Hua et al., Nature 478, 123-126, 2011). All drugs were injected subcutaneously before P3, contralateral to the oligonucleotide-injection site, with TSA (10 mg/kg) or VPA (10 mg/kg) or vehicle. Mouse tissues and organs, including liver, thigh muscles, kidney, and spinal cord, were snap-frozen in liquid N2 and stored at -70° C.
Introduction of a human SMN2 transgene in an Smn^-/- background rescues embryonic lethality, displaying a range of phenotypes, depending on the SMN2 copy number (Hsieh-Li et al., Nat. Genet. 24, 66-70, 2000; Monani et al., Hum Mol Genet. 12; 333-339, 2000). […]

SMA mice = assay: Grip-strength test of P7 SMA mice; assay type: in vivo, mouse; conditions: untreated mutants ~35°
Procedure: ASO1-treated Smn^+/- heterozygote littermates (n=15) served as controls. Scramble (Ctrl) (n=12, 40 trials), VPA (n=13, 50 trials), ASO1 (n=11, 50 trials), ASO1 + VPA (n=17, 68 trials), and untreated heterozygotes (n=12, 36 trials). Statistical significance was analyzed by two-way repeated measures ANOVA. P < 0.05 was considered statistically significant; data are represented as mean + SD. […] In the grip-strength test, the angle at which the pups fell from a tablet with a rough to which they held on by their forelimbs was measured.
In the grip-strength test, the angle at which the pups fall from a tablet with a rough surface to which they hold on by their forelimbs was measured.

[3] = system: H3K9me2 on merged SMN1 and SMN2 genes; assay: Genome-wide ChIP-seq analysis of H3K9me2 mark deposition in HEK293T cells; assay type: cell-based, human
Procedure: The effects of ASO1 and/or VPA on the deployment of the H3K9me2 mark throughout the genome by using ChIP-seq were analyzed.

Molecule | effect of VPA on ASO1-promoted H3K9me2 ([1]; HEK293T transfected with ASO1 and treated with 10 mM VPA) | H3K9me2 marks along the SMN2 gene ([1]; HEK293T, ASO transfection or 10 mM VPA) | survival (in words) [2] | grip strength, inclination angle at which pups fall (SMA mice) | reverting effect of VPA on SMN1/2 compared with control genes ([3]; ASO1+VPA/control+VPA, 11,738 protein-coding genes) | decrease of H3K9me2 methylation mark ([3]; HEK293T treated with VPA, merged SMN1 and SMN2 genes) | H3K9 dimethylation, peak increase at the promoter and the alternative E7 areas ([1]; HEK293T transfected with ASO1 vs scramble oligo) | median survival [2] | mice still alive at P50 [2] | share of control-set genes with lower ASO1/control fold enrichment than SMN1/2 ([3]; 11,738 protein-coding genes as reference) | enrichment of H3K9me2 ChIP-seq reads compared with the control ([3]; HEK293T, merged SMN1 and SMN2 genes)
CCCC(CCC)C(=O)O [VPA, valproic acid] | completely abolished the ASO1 effect | reduced the H3K9me2 marks relative to the control | died before P10; also recorded: lack of an effect per se | ~ 30 ° | higher than for the majority of the control genes | 67% |  |  |  |  | 
ASO1: 5′-ATTCACTTTCATAATGCTGG-3′ 2′-O-methoxyethyl-modified oligonucleotide with phosphorothioate backbone and all 5-methyl cytosines; nusinersen variant with 2-nucleotide extension (antisense eA*eT*eT*e[5mC]*eA*e[5mC]*eT*eT*eT*e[5mC]*eA*eT*eA*eA*eT*eG*e[5mC]*eT*eG*eG) |  |  | significantly extended | ~ 45 ° |  |  | 8 fold | ~ 20 days | 15% | ~ 91 % of the genes in the control set | 44%
